Experimental data reported in ChEMBL document CHEMBL4376892, “Identification of Parthenolide Dimers as Activators of Pyruvate Kinase M2 in Xenografts of Glioblastoma Multiforme in Vivo” (J Med Chem, 2020).
The source made the active and inactive calls. The calls are words filed in the database; no cut-off is given here.

Tests used:
[1] = Antiproliferative activity against human SHG44 cells assessed as reduction in cell viability after 72 hrs by MTT assay; format: functional, cell-based; settings: SHG-44, 72 h
SUM-159-PT = assay: Antiproliferative activity against human SUM159 cells assessed as reduction in cell viability after 72 hrs by MTT assay; format: functional, cell-based
Pyruvate kinase PKM [2] = target: T1, Pyruvate kinase PKM (Homo sapiens, UniProt P14618); assay: Activation of PKM2 in human U118MG cells assessed as reduction in vimentin expression at 1 to 2 uM after 24 hrs by Western blot analysis; format: cell-based
T1 sequence (P14618 2-531 limits assumed): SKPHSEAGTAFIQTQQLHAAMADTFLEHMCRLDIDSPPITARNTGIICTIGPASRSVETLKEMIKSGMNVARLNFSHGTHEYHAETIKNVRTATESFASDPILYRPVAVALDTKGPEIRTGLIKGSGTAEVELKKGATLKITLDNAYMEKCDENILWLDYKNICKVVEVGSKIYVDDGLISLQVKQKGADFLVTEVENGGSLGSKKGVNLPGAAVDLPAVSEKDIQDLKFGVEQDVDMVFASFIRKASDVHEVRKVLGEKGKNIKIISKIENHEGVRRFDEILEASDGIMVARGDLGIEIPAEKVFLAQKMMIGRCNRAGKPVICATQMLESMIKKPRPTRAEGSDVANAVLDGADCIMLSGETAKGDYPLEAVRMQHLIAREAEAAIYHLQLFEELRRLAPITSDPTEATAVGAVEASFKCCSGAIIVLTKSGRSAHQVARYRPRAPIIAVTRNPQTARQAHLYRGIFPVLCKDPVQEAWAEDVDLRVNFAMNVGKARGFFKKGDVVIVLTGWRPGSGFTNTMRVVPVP

Pyruvate kinase PKM [3] = target: T1, Pyruvate kinase PKM; assay: Activation of PKM2 in human U87 cells assessed as reduction in vimentin expression at 1 to 2 uM after 24 hrs by Western blot analysis; format: cell-based; settings: U-87MG ATCC
U-118-MG [4] = assay: Antiinvasive activity against human U118MG cells transfected with lentivirus expressing shNC at 2 uM incubated for 48 hrs by crystal violet staining based transwell assay; format: functional, cell-based
Pyruvate kinase PKM [5] = target: T1, Pyruvate kinase PKM; assay: Activation of PKM2 in human U87 cells assessed as reduction in bcl-xl expression at 1 to 2 uM after 48 hrs by Western blot analysis; format: cell-based; settings: U-87MG ATCC
U-87 MG [6] = assay: Induction of apoptosis in human U87 cells assessed as early apoptotic cells after 48 hrs by Annexin-V-FITC/PI-staining based flow cytometric analysis (reference value: 4.91%); format: functional, U-87MG ATCC
U-118-MG [7] = assay: Induction of apoptosis in human U118MG cells transfected with lentivirus expressing shNC assessed as early apoptotic cells after 48 hrs by Annexin-V-FITC/PI-staining based flow cytometric analysis (reference value: 2.56%); format: functional
SF-126 = assay: Antiproliferative activity against human SF126 cells assessed as reduction in cell viability after 72 hrs by MTT assay; format: functional, cell-based; settings: SF-126, 72 h
Pyruvate kinase PKM [8] = target: T1, Pyruvate kinase PKM; assay: Activation of PKM2 in human U118MG cells assessed as inhibition of STAT3 protein expression at 1 to 2 uM after 24 hrs by Western blot analysis; format: cell-based
Pyruvate kinase PKM [9] = target: T1, Pyruvate kinase PKM; assay: Activation of PKM2 in human U87 cells assessed as inhibition of STAT3 protein expression at 1 to 2 uM after 24 hrs by Western blot analysis; format: cell-based; settings: U-87MG ATCC
U-118-MG [10] = assay: Induction of apoptosis in human U118MG cells transfected with lentivirus expressing shNC assessed as viable cells after 48 hrs by Annexin-V-FITC/PI-staining based flow cytometric analysis (reference value: 96.7%); format: functional
U-87 MG [11] = assay: Induction of apoptosis in human U87 cells transfected with lentivirus expressing shNC assessed as necrotic cells after 48 hrs by Annexin-V-FITC/PI-staining based flow cytometric analysis (reference value: 0.319%); format: functional, U-87MG ATCC
U-87 MG [12] = assay: Induction of apoptosis in human U87 cells after 48 hrs by Annexin-V-FITC/PI-staining based flow cytometric analysis; format: functional, cell-based; settings: U-87MG ATCC
U-251 = assay: Antiproliferative activity against human U251 cells assessed as reduction in cell viability after 72 hrs by MTT assay; format: functional, cell-based; settings: U-251, 72 h
U-118-MG [13] = assay: Induction of apoptosis in human U118MG cells assessed as early apoptotic cells after 48 hrs by Annexin-V-FITC/PI-staining based flow cytometric analysis (reference value: 1.35%); format: functional
U-118-MG [14] = assay: Induction of apoptosis in human U118MG cells transfected with lentivirus expressing shPKM2 assessed as necrotic cells after 48 hrs by Annexin-V-FITC/PI-staining based flow cytometric analysis (reference value: 0.105%); format: functional
U-87 MG [15] = assay: Induction of apoptosis in human U87 cells transfected with lentivirus expressing shPKM2 assessed as early apoptotic cells after 48 hrs by Annexin-V-FITC/PI-staining based flow cytometric analysis (reference value: 0.88%); format: functional, U-87MG ATCC
U-87 MG [16] = assay: Inhibition of colony formation in human U87 cells after 7 days; format: functional, cell-based; settings: U-87MG ATCC
Pyruvate kinase PKM [17] = target: T1, Pyruvate kinase PKM; assay: Activation of PKM2 in human U118MG cells assessed as reduction in bcl2 expression at 1 to 2 uM after 48 hrs by Western blot analysis; format: cell-based
U-118-MG [18] = assay: Antimetastatic activity against human U118MG cells assessed as reduction in cell invasion at 2 uM after 24 hrs by crystal violet staining based transwell assay; format: functional
Pyruvate kinase PKM [19] = target: T1, Pyruvate kinase PKM; assay: Activation of PKM2 in human U118MG cells assessed as increase in bax protein expression at 1 to 2 uM after 48 hrs by Western blot analysis; format: cell-based
HepG2 = assay: Antiproliferative activity against human HepG2 cells assessed as reduction in cell viability after 72 hrs by MTT assay; format: functional, cell-based; settings: HepG2, 72 h
U-118-MG [20] = assay: Induction of apoptosis in human U118MG cells transfected with lentivirus expressing shPKM2 assessed as early apoptotic cells after 48 hrs by Annexin-V-FITC/PI-staining based flow cytometric analysis (reference value: 2%); format: functional

- Activity (Pyruvate kinase PKM [2]): Active
- Activity (Pyruvate kinase PKM [3]): Active
- Activity (Pyruvate kinase PKM [5]): Active
- Activity (Pyruvate kinase PKM [8]): Active
- Activity (Pyruvate kinase PKM [9]): Active
- IC50 (U-251): 7.14 µM
- Activity (Pyruvate kinase PKM [17]): Active
- Activity (Pyruvate kinase PKM [19]): Active
- IC50 (HepG2): 10.2 µM
SMILES: C=C1C(=O)O[C@H]2[C@H]1CC/C(C(=O)OCCOCCOC(=O)/C1=C/CC[C@@]3(C)O[C@H]3[C@H]3OC(=O)C(=C)[C@@H]3CC1)=C\CC[C@@]1(C)O[C@@H]21
- IC50 [1]: 5.24 µM
- IC50 (SUM-159-PT): 2.82 µM
- Activity (U-118-MG [4]): Active
- Activity (U-87 MG [6]): 24.4%
- Activity (U-118-MG [7]): 47.1%
- IC50 (SF-126): 7.49 µM
- Activity (U-118-MG [10]): 34.7%
- Activity (U-87 MG [11]): 1.24%
- Activity (U-87 MG [12]): Dose-dependent effect
- Activity (U-118-MG [13]): 39.4%
- Activity (U-118-MG [14]): 0.09%
- Activity (U-87 MG [15]): 3.74%
- inhibition (U-87 MG [16]): Dose-dependent effect
- Activity (U-118-MG [18]): Active
- Activity (U-118-MG [20]): 5.78%
